Measurements as given in ChEMBL document CHEMBL1201862, “PubChem BioAssay data set” (2004).
Calls of active or inactive are those of the source.

Tests used:
Galanin receptor type 3 = molecular target: T1, Galanin receptor type 3 (Homo sapiens, UniProt O60755); test: Fluorescence-based cell-based primary high throughput dose response assay to identify antagonists of the Galanin Receptor 3 (GalR3).; assay type: functional
T1 sequence (O60755 whole entry): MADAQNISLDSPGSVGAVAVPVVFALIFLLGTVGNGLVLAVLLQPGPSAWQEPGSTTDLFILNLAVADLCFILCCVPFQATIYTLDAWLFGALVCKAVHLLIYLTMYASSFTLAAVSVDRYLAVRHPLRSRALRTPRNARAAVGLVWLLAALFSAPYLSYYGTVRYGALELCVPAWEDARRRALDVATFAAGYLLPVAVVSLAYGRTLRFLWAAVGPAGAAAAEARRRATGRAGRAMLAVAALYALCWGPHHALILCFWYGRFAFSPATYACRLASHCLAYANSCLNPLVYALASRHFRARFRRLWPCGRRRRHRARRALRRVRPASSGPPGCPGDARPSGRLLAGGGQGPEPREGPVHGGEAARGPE

cells = assay type: functional, cell-based; conditions: HEK-CNG
[1] = molecular target: SWI/SNF-related matrix-associated actin-dependent regulator of chromatin subfamily A member 2 (Homo sapiens, UniProt P51531); test: Luminescence-based cell-based high throughput dose response assay to identify activators of the function of SWI/SNF related, matrix associated, actin dependent regulator of chromatin, subfamily a, member 2 (SMARCA2, BRM).; assay type: functional
SWI/SNF-related matrix-associated actin-dependent regulator of chromatin subfamily A member 2, sequence (P51531 whole entry): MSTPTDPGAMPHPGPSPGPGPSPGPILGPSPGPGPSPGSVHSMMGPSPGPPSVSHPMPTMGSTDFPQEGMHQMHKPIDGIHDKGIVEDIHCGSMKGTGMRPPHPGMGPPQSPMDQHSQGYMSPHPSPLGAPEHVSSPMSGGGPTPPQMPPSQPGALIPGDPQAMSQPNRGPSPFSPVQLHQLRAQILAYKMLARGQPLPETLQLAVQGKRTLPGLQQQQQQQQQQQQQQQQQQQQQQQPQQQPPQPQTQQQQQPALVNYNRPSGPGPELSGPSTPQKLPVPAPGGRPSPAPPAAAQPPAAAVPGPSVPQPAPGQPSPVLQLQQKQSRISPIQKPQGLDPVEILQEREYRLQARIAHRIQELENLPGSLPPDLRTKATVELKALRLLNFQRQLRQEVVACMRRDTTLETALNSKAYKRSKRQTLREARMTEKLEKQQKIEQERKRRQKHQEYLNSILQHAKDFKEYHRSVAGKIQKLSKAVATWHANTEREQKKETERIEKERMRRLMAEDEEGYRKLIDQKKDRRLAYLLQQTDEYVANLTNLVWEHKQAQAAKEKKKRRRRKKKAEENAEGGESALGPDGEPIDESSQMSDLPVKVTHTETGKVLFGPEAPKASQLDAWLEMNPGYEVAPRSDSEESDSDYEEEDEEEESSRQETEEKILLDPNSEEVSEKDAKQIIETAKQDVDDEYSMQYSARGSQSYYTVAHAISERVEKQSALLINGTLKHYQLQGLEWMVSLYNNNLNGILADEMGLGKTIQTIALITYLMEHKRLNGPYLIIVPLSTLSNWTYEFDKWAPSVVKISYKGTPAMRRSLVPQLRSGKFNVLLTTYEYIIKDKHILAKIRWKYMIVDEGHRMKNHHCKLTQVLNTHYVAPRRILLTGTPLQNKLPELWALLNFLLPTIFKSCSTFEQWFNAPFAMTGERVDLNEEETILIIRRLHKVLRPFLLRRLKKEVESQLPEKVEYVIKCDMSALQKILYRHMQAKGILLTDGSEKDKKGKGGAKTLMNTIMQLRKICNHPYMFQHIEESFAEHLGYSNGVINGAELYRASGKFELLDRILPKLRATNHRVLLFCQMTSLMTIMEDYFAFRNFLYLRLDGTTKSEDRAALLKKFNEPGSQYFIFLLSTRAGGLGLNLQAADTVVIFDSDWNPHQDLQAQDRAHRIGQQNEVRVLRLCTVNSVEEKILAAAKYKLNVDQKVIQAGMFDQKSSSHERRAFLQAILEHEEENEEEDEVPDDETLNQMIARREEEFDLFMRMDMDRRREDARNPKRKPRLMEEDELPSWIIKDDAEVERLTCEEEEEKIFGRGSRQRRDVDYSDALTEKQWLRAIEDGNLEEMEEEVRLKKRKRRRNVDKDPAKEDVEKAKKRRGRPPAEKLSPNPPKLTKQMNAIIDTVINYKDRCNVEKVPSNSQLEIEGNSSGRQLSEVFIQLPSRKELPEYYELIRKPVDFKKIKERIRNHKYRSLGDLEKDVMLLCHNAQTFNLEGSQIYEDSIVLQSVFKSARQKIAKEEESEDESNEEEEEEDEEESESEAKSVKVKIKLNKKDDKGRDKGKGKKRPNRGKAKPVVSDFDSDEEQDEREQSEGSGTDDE

[2] = Counterscreen for activators of the function of SWI/SNF related, matrix associated, actin dependent regulator of chromatin, subfamily a, member 2 (SMARCA2, BRM): Luminescence-based cell-based high throughput dose response assay to identify non-selective compounds using the VP16 reporter assay.; assay type: functional
[3] = NIH-3T3 fibroblast cytotoxicity, dose response, cytotoxicity control, cell-based, fluorescence, Alamar Blue, secondary assay (AID 2327); assay type: functional;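 note: NIH-3T3 mouse fibroblasts cultured with fluconazole at 8 µg/mL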
[4] = fluconazole-exposed Candida albicans growth modulators – fluorescence, retest, confirmation (AID 2467); assay type: functional, cell-based
[5] = viability of PTEN-deleted HCT116 cells – cell-based, HCT116 PTEN knockout, dose response (AID 1047); assay type: functional;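 note: HCT116 colon tumor cells with PTEN knocked out; cells exposed to compound for 60 hours before readout; potency for loss of cell viability measured by luminescence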
[6] = viability of HCT116 lacking mutant beta-catenin – cell-based, human colon tumor, dose response (AID 1045); assay type: functional;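 note: HCT116 colon tumor cells with beta catenin knocked out; cells exposed to compound for 60 hours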
INS1 = test: INS-1E survival protection against cytokine death – cell-based, luminescence, retest, dose response (AID 449756); assay type: functional; conditions: Rattus norvegicus;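 note: cell death triggered by IL-1 beta plus TNF-alpha plus IFN-gamma mixture; protective hits raise ATP signal compared with cytokine alone wells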
[7] = blockers of HIV-1 envelope-mediated cell-cell fusion – cherry-pick, dose response (AID 652057); assay type: functional, cell-based
[8] = viability loss in CEM21 cells – cell-based, CellTiter-Glo luminescence, cherry-picked, cytotoxicity control for viral fusion inhibitor project, dose response (AID 652042); assay type: functional;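 note: potency for signal decrease meaning cytotoxicity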
[9] = blockers of HIV-1 ZM109 envelope-driven cell-cell fusion – HeLa effector, CEM target cells, luciferase, cherry-pick, dose response (AID 652058); assay type: functional, cell-based;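 note: luciferase signal from HIV-1 Env mediated cell-cell fusion of effector and target cells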
[10] = off-target signal loss in HeLa-CEM21 co-culture – HeLa F-luc CTL cells, cherry-picked, counter-screen for HIV-1 Env fusion inhibitor project, dose response (AID 652040); assay type: functional, cell-based;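 note: potency for signal decrease marking cytotoxic or nonspecific inhibition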
[11] = HIV-1 AD8 envelope cell-cell fusion blockers – cherry-pick, dose response (AID 652062); assay type: functional, cell-based;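 note: luciferase signal from cell-cell fusion driven by HIV-1 clade B AD8 Env; potency is for inhibitors of fusion seen as a drop in luminescence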
[12] = molecular target: Photoreceptor-specific nuclear receptor (Homo sapiens, UniProt Q9Y5X4); assay type: functional, cell-based;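 note: CHO-S cells with Gal4-NCOR and VP16-NR2E3 two-hybrid luciferase reporter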
Photoreceptor-specific nuclear receptor, sequence (Q9Y5X4 whole entry, the tested form may be a part): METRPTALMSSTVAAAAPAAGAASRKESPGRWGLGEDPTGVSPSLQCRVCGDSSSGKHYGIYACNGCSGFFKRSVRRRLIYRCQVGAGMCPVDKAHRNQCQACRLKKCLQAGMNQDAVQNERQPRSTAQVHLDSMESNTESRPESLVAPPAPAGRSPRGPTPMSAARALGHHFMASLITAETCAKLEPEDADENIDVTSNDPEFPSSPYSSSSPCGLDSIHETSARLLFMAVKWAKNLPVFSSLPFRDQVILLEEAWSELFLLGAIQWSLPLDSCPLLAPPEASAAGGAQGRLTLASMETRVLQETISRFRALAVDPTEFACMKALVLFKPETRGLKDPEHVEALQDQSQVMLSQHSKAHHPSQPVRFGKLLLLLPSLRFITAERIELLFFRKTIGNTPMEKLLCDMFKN

[13] = inhibition of ARNT PAS-B/TACC3 complex formation – biochemical, AlphaScreen, cherry-picked samples, confirmation (AID 651703); assay type: functional, Homo sapiens;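 note: His-tagged ARNT PAS-B domain paired with GST-TACC3 E629A dimer coactivator fragment; potency of inhibitors that break up the complex and lower AlphaScreen signal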
[14] = molecular target: T2, Sentrin-specific protease 8 (Homo sapiens, UniProt Q96LD8); test: inhibition of human SENP8 cleavage activity – biochemical, luminescence, SAR follow-up (AID 504501); assay type: functional
T2 sequence (Q96LD8 whole entry): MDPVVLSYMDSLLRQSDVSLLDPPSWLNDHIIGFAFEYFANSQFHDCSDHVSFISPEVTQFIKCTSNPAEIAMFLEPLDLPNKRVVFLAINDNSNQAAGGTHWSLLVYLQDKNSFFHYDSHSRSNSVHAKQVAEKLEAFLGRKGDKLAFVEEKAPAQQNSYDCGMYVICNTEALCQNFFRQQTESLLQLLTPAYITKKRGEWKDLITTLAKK

Caspase-3 = molecular target: T3, Caspase-3 (Homo sapiens, UniProt P42574); test: SAR Analysis of small molecule inhibitors of Sentrin-specific proteases (SENPs) using a Caspase-3 Selectivity assay. [Related pubchem assays (depositor defined):AID2540, AID2599, AID434973, AID489001]; assay type: functional
T3 sequence (P42574 whole entry): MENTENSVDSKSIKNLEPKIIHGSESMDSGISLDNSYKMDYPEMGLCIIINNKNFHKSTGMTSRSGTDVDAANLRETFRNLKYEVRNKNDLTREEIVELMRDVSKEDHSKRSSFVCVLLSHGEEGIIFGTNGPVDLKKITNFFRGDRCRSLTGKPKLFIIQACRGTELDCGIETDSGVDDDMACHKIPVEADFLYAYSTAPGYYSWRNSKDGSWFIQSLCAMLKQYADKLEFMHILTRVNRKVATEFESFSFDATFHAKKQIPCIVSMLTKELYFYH

[15] = molecular target: T4, Sentrin-specific protease 6 (Homo sapiens, UniProt Q9GZR1); test: SAR Analysis of small molecule inhibitors of Sentrin-specific protease 6 (SENP6) using a Luminescent assay. [Related pubchem assays (depositor defined):AID2582, AID2599]; assay type: functional
T4 sequence (Q9GZR1 whole entry): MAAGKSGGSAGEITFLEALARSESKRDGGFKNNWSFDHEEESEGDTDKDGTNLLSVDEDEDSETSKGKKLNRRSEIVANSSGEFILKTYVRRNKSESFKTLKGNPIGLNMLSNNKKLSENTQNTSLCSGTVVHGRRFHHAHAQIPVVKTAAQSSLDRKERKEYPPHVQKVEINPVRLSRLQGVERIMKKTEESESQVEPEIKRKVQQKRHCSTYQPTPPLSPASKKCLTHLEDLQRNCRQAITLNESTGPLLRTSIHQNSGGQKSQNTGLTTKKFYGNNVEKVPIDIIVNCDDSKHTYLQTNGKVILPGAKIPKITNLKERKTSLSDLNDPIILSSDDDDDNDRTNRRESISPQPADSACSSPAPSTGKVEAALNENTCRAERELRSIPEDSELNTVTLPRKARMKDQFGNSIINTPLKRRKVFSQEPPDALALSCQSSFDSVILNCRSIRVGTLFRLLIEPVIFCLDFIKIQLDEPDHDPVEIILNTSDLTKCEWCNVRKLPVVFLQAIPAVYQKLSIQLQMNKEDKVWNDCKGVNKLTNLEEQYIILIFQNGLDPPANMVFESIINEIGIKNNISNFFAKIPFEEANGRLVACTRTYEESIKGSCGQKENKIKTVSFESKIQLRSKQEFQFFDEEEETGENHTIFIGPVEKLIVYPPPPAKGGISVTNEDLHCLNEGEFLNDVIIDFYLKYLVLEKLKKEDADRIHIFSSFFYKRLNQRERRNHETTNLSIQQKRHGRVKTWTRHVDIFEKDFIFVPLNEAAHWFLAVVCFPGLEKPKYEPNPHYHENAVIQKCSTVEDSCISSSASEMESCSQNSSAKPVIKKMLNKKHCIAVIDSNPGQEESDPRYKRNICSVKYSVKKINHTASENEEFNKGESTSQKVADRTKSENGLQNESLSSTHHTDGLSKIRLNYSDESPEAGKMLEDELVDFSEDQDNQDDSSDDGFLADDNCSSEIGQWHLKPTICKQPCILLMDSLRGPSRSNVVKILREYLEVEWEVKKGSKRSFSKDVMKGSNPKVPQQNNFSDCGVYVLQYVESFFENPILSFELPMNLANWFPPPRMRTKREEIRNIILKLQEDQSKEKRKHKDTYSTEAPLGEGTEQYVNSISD

[16] = molecular target: T5, Sentrin-specific protease 7 (Homo sapiens, UniProt Q9BQF6); test: inhibition of human SENP7 cleavage activity – biochemical, luminescence, SAR follow-up (AID 504497); assay type: functional
T5 sequence (Q9BQF6 whole entry): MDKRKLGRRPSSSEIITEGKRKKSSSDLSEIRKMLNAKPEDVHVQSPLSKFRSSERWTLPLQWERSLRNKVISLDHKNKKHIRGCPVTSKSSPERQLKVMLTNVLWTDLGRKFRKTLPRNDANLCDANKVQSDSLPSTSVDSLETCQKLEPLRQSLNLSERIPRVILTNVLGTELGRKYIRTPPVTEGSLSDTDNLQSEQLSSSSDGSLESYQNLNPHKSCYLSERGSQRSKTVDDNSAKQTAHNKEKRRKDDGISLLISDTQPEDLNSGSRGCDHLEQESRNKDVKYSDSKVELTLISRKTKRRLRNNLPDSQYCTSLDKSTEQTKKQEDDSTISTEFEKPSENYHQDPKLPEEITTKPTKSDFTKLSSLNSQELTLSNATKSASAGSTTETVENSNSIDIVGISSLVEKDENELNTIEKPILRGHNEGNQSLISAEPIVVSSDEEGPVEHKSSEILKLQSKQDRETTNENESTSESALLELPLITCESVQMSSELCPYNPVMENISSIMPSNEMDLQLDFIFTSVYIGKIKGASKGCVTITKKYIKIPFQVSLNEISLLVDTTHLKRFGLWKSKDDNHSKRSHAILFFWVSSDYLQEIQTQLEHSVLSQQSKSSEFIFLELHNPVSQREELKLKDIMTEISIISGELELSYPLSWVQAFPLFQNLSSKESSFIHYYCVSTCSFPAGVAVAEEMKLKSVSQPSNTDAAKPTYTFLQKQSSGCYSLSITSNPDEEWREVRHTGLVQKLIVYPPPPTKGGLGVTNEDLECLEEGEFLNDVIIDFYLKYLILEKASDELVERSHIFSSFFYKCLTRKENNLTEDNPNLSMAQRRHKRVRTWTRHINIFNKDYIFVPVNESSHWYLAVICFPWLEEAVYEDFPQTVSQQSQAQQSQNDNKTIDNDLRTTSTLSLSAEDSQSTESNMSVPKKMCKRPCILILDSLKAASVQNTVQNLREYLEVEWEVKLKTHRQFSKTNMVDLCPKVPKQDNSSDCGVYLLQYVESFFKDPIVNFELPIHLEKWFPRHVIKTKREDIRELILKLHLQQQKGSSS

P388/ADR = test: cells; assay type: functional; conditions: Mus musculus
SN12K1 = test: cells; assay type: functional; conditions: Homo sapiens
P388 = test: cells; assay type: functional; conditions: Mus musculus

Cc1n[nH]c(NCCO)c1[N+](=O)[O-]
IC50 (Galanin receptor type 3): > 29.9 µM (inactive)
EC50 (cells): > 29.9 µM (inactive)

O=C(c1noc2c1CCc1ccccc1-2)N1CCOCC1
EC50 [1]: > 91.2 µM (inactive)
EC50 [2]: > 91.2 µM (inactive)

COc1cccc(CNCCc2c[nH]c3ccccc23)c1OCc1ccccc1F
EC50 [3]: > 150 µM (inconclusive)
EC50 [4]: 1.5 µM (active)
EC50 [5]: 5.56 µM (active)
EC50 [6]: 4.65 µM (active)
AC50 (INS1): 8.08 µM (active)
AC50 [7]: 3.52 µM (active)
AC50 [8]: 9.93 µM (active)
AC50 [9]: 25.6 µM (active)
AC50 [10]: 23.2 µM (active)
AC50 [11]: 7.5 µM (active)

Nc1ccc(O)cc1C(=O)OCC(=O)c1ccc(C2CCCCC2)cc1
AC50 [8]: 2.3 µM (active)
AC50 [9]: 0.865 µM (active)
AC50 [10]: 40.9 µM (active)
AC50 [11]: 2.09 µM (active)

O=C(Nc1ccc(Cn2cccn2)cc1)c1ccc(COc2ccccc2Br)cc1
IC50 [12]: 4.43 µM (active)

CC1=Nn2c(nnc2-c2ccccn2)SC1
AC50 [13]: 84.7 µM (active)

COc1ccc(OC)c(-c2cc(C(=O)N3CCN(c4ncccn4)CC3)c3ccccc3n2)c1
AC50 [13]: 127 µM (active)

Cc1onc(-c2ccccc2Cl)c1C(=O)Nc1nc2c(s1)CCCC2
IC50 [12]: 1.25 µM (active)

COc1ccc(/C=N/Nc2nc(NCc3ccccc3)nc(N(C)C)n2)cc1Br
IC50 [14]: > 99 µM (inactive)
IC50 (Caspase-3): > 99 µM (inactive)
IC50 [15]: > 99 µM (inactive)
IC50 [16]: > 99 µM (inactive)

C(/C=C/c1ccccc1)=N/Nc1cc(N2CCCC2)nc(N2CCCC2)n1
IC50 [14]: 43.5 µM (active)
IC50 (Caspase-3): > 99 µM (inactive)
IC50 [15]: 11 µM (active)
IC50 [16]: 32.9 µM (active)

CCOc1ccc(C(=O)Nc2ccc3ccccc3c2)cc1Br
IC50 [14]: > 99 µM (inactive)
IC50 (Caspase-3): > 99 µM (inactive)
IC50 [15]: > 99 µM (inactive)
IC50 [16]: > 99 µM (inactive)

CN(C)CCSc1nccc(-c2ccc(-c3ccnc(SCCN(C)C)n3)s2)n1
GI50 (P388/ADR): 2.35 µM (inactive)
GI50 (SN12K1): 11.1 µM (inactive)
GI50 (P388): 1.04 µM (active)

COc1nc(N)nc2nc[nH]c12
GI50 (P388/ADR): 265 µM (inactive)
GI50 (SN12K1): 383 µM (inactive)
GI50 (P388): 339 µM (inactive)

COc1cc2c(cc1OC)C(OC)N(C)c1c-2ccc2cc3c(cc12)OCO3 (stereo unspecified)
GI50 (P388/ADR): 2.58 µM (inactive)
GI50 (SN12K1): 0.652 µM (active)
GI50 (P388): 0.667 µM (active)

NC1(C(=O)O)CCc2ccc(N(CCCl)CCCl)cc2C1 (stereo unspecified)
GI50 (P388/ADR): 10.9 µM (inactive)
GI50 (SN12K1): 64.1 µM (inactive)
GI50 (P388): 1.67 µM (inactive)
